Blank lines part the entries; values can stand above or below the molecule they belong to.
Experiments:
α-1,4-glucan lyase [1] = experiment: Km of the lyase; type: biochemical, Gracilariopsis lemaneiformis; conditions: substrate of the lyase
Target sequence in this assay (as listed by the source): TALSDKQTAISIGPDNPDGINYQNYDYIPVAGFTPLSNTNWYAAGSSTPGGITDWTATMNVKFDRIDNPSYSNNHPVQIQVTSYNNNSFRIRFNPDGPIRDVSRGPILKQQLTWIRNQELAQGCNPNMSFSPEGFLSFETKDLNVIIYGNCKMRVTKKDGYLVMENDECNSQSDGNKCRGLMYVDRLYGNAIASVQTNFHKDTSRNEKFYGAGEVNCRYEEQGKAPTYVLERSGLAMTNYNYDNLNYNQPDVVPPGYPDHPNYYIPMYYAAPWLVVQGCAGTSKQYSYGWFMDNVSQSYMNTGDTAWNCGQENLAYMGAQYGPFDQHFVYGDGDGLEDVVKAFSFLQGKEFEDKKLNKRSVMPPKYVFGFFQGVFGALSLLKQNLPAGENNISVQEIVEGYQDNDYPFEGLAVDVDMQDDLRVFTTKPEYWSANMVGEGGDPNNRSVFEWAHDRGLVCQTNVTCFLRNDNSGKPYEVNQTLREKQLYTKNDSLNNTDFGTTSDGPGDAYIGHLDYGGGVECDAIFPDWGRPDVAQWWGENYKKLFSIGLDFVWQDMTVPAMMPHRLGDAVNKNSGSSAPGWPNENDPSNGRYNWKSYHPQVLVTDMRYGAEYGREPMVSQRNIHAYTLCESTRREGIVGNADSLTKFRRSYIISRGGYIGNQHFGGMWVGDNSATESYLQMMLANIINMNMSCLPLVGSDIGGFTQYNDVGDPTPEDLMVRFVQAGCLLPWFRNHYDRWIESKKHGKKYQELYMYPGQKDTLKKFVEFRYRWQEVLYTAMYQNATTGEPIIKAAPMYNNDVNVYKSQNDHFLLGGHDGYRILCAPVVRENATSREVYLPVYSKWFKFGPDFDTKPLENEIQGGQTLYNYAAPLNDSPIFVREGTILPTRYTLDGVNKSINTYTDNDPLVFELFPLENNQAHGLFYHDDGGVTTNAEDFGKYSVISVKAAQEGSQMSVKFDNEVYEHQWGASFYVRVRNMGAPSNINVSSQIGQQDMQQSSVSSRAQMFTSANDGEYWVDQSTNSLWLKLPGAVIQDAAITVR

α-1,4-glucan lyase [2] = experiment: Degradation studies: AF released by the lyase from various substrates; type: biochemical, Gracilariopsis lemaneiformis; conditions: for AF released: substrate 10 mg/ml, 10 mM HOAc-NaOAc pH 3.8, 40 min at 45° C., 100 ul
Protocol: Reaction conditions: The reaction mixture contained 10 mM of HOAc-NaOAc (pH 3.8). The substrate concentration was 10 mg/ml. The final volume was 100 ul after the addition of lyase and water. The reaction time was 40 min at 45° C.

lyase and pullulanase = experiment: Cooperation of pullulanase and lyase in the production of AF; type: biochemical; conditions: 2% substrate, 30° C., 1 day
Protocol: The reaction mixture contained 0.3 ml 2% potato amylopectin (Sigma) in water or 0.3 ml 2% soluble starch (Merck), 2 μl lyase and 0.36 units pullulanase (BM) as indicated.
The reaction was carried out at 30° C. for 1 day. At the end of the reaction, samples were taken for AF and Glc analysis.

α-1,4-glucan lyase [3] = experiment: Effect of substrate on the stability of the lyase; type: biochemical; conditions: soluble and immobilized enzyme system
Target sequence in this assay (as listed by the source): as above

[4] = Electrochemical oxygen consumption in methyl linoleate emulsion; conditions: AF 15, 146 and 680 μM; metmyoglobin initiated; 25.0° C.
Protocol: The activity of AF was investigated in a methyl linoleate emulsion as described by Jorgensen and Skibsted (Z. Lebensm. Unters. Forsch. (1993) 196: 423-429) with minor modifications: To 5.00 ml of a 1.33 mM methyl linoleate emulsion in 5.0 mM aqueous phosphate buffer with pH=5.8 and 0.2 w/w % Tween 20 as emulsifier was added AF in the following concentrations: 0, 15, 146 and 680 μM. The oxidation in the system was initiated by addition of 50 μl […] metmyoglobin (MMb) final concentration 0.26 mM. Immediately after initiating the reaction the sample was injected to a thermostated (25.0±0.1° C.) 70 μl closed cell, effectively excluding diffusion of oxygen into the system. The oxygen consumption was measured by a Clark electrode, which was connected to a PC data collection program. The relative oxygen concentration (%) was registered every 30 s.

Oxidation of AF by air = type: physicochemical; conditions: especially at high temperature, high AF concentration, long exposure
Excerpt: Catalase is needed to dispel H2O2 formed. H2O2 will oxidize AF into two new compounds which are at present of unknown structure. The other impurities in the AF preparation are the oxidation products of AF. […] Gluconic acid was removed together with the buffer salts by ion exchange chromatography.

[5] = Reduction of 3,5-dinitrosalicylic acid; type: physicochemical
[6] = Induction period of yogurt salad dressing with 50% oil
Excerpt: For each temperature defined as PF=IP of the oil with added antioxidant/IP of the same oil without added antioxidant

[7] = Induction period of 50% mayonnaise in bomb calorimeter; conditions: +500 ppm in mayonnaise; 80° C., pure O2
Protocol: In the test procedure the anti-oxidants were added to the mayonnaise to provide an anti-oxidant concentration in the order of about 500 ppm. The mayonnaise was then placed in a bomb calorimeter at temperature 80° C. containing pure O2. An induction period to the onset of substantial oxidation of the product is then measured.

[8] = ESR analysis of hydroxyl radical scavenging (Fenton reaction, DMPO spin trap); conditions: for Peak height of ESR-spectra [120 s] / Peak height of ESR-spectra [300 s]: H2O2 0.17 mM, Fe2+ 4.8 μM
Protocol: Hydroxyl radicals were generated by a Fenton reaction with H2O2 (0.17 mM) and FeSO4 (4.8 μM). The generated radicals were trapped by 5,5-dimethyl-1-pyrroline N-oxide (DMPO, 9.7 mM). AF was added in concentrations of 1.3 mM and 6.3 mM. A water soluble extract of rosemary (Rosmarinus officinalis L.) was analyzed in a concentration of 0.25 mg/ml (in grams equivalent to 1.26 mM AF). Measurements were carried out at room temperature (20±1° C.) after 120 s and repeated for the same reaction mixture after 300 s with the following spectrometer settings: Center field 3475.60 G; sweep width 55 G; microwave power 20 mW; modulation frequency 100 kHz; modulation amplitude 1.01 G; receiver gain 1.00·10^5; conversion time 81.92 ms time constant 163.84 ms and sweep time 83.89 s.
The spin adduct gives rise to a characteristic 1:2:2:1 ESR spectrum. The peak height of the spectrum is proportional to the quantitative amount of generated spin adduct. Addition of both DMPO and AF will set up a competition between the spin trap and AF. A reduction of peak height will indicate a good scavenging activity of AF.

α-1,4-glucan lyase [9] = experiment: Formation of AF from amylopectin (HPLC), end-product inhibition; type: biochemical; conditions: equal AF after 30 and 120 min incubation
Protocol: α-1,4-glucan lyase according to the present invention hydrolyses starch to the end-product 1,5-anhydrofructose. The end-product was shown by HPLC, method 2. The enzyme assay contained 500 μl amylopectin (20 mg/ml, dissolved in H2O), 400 μl 0.1 M MES pH 6.3 and 100 μl purified enzyme. The reaction mixture was incubated at 30° C. and the reaction was stopped by boiling after 30 or 120 min incubation. High-molecular oligosaccharides were precipitated by addition of 3 vol abs. ethanol and the sample was centrifuged and freeze-dried as described above. The samples were dissolved in 125 μl H2O and 25 μl were applied on the HPLC column.

α-1,4-glucan lyase [10] = tested on: α-1,4-glucan lyase
α-1,4-glucan lyase [11] = experiment: Effect of different reaction media upon production of AF by the lyase; type: biochemical, Gracilariopsis lemaneiformis; conditions: reaction medium
Excerpt: The production of AF using either pure water or 0.85% NaCl as reaction medium decreased the yield.

α-1,4-glucan lyase [12] = experiment: Substrate specificity for oligosaccharides by Dionex HPLC; type: biochemical; conditions: 8 mg/ml substrate, 0.1M MES pH 6.3, 60 min at 30° C.
Protocol: The specificity of α-1,4-glucan lyase for different oligosaccharides was tested. […] The oligosaccharides were dissolved in H2O at a concentration of 8 mg/ml. The enzyme assay contained 150 μl substrate G2/G3/G4/G5/G6/G7, 120 μl 0.1M MES pH 6.3 and 30 μl purified enzyme. The reaction mixture was incubated for 60 min at 30° C. Afterwards the reaction was stopped by boiling for 3 min and 900 μl absolute ethanol was added for precipitation. After centrifugation at 20.000×g for 5 min at 4° C. the supernatant was transferred to a new eppendorf tube and lyophilized.
The freeze-dried samples were dissolved in 1000 μl H2O and were filtrated through a 0.22 μm Millipore filter before 25 μl of the sample was loaded on the Dionex HPLC.
Analyses were performed on a Dionex 4500i chromatography system consisting of a GPM-2 pump and a PED detector which was used in pulse-amperometric detection mode. The anion exchange columns were a CarboPac PA-100 (4×250 mm) and a CarboPac PA-100 guard column (3×25 mm) from Dionex. The eluent were 200 mM sodium hydroxide (A), 500 mM sodium acetate (B) and 18 M ohm de-ionized water (C). The pump was programmed in 2 different ways, method no. 1 and method no.

α-1,4-glucan lyase [13] = experiment: Reversible and irreversible inhibitors of the lyase; type: biochemical, Gracilariopsis lemaneiformis; conditions: for decrease of lyase activity (inhibition): 0.1 M inhibitor; for inhibition (second, untitled table): lyase not stated
[14] = Isoelectric focusing of the α-1,4-glucan lyases; type: physicochemical; conditions: isoelectrofocusing, pH gradient 3-9
Excerpt: The relative migration rates were estimated from native PAGE on gels with 8-25% gradient; the pI values were estimated by isoelectrofocusing on gels with a pH gradient of 3-9.
FIG. 2. Isoelectric focusing of the α-1,4-glucan lyases on a gel with a pH gradient of pH 3 to pH 9. The gel was stained with PhastGel Blue R.

[15] = lyase added, pullulanase omitted
[16] = lyase omitted, pullulanase added

oxidation by air-level of oxygen (Oxidation of AF by air): can slowly be oxidized
inhibition of enzyme activity by end-product (α-1,4-glucan lyase [9]): not inhibited
Molecule: O=C1CO[C@H](CO)[C@@H](O)[C@@H]1O [AF, 1,5-D-anhydrofructose]
oxygen consumption curve [4]: lag-phase is observed
reducing agent (antioxidant) activity [5]: can easily reduce 3,5-dinitrosalicylic acid
IP hours (Induction Period) ([6]; 500 ppm in yogurt salad dressing): 39.5 h
PF (Protection Factor) ([6]; 500 ppm, IP with antioxidant / IP without): 1.06
IP hours (Induction Period) [7]: 32,0 hours
scavenging activity of hydroxyl radicals ([8]; 1.3 mM AF): no scavenging activity
Peak height of ESR-spectra [120 s] ([8]; 1.3 mM AF): 2634
Peak height of ESR-spectra [300 s] ([8]; 1.3 mM AF): 2545
scavenging activity of hydroxyl radicals ([8]; 6.3 mM AF): peak height is reduced
Peak height of ESR-spectra [120 s] ([8]; 6.3 mM AF): 1781
Peak height of ESR-spectra [300 s] ([8]; 6.3 mM AF): 1900

effect on lyase activity (α-1,4-glucan lyase [10]; up to 20 mM in the reaction mixture): little effect
Molecule: O=C(O)CN(CCN(CC(=O)O)CC(=O)O)CC(=O)O [EDTA]

activity of the lyase towards maltosaccharides (α-1,4-glucan lyase [2]; in words): low activity
AF released (α-1,4-glucan lyase [2]): 657 nmol
1,5-anhydrofructose formation from substrate (α-1,4-glucan lyase [12]): almost no 1,5-anhydrofructose was formed
decrease of lyase activity (inhibition) (α-1,4-glucan lyase [13]; substrate amylopectin 1% (10 mg/ml)): 73.4%
decrease of lyase activity (inhibition) (α-1,4-glucan lyase [13]; substrate amylopectin 2%): 67.2%
decrease of lyase activity (inhibition) (α-1,4-glucan lyase [13]; substrate glycogen 1% (10 mg/ml)): 48.8%
decrease of lyase activity (inhibition) (α-1,4-glucan lyase [13]; substrate glycogen 2%): 49.7%
inhibition (second, untitled table) (α-1,4-glucan lyase [13]; substrate amylopectin (1%)): 80%
inhibition (second, untitled table) (α-1,4-glucan lyase [13]; substrate glycogen (1%)): 57%
Molecule: OC[C@H]1O[C@H](O[C@H]2[C@H](O)[C@@H](O)C(O)O[C@@H]2CO)[C@H](O)[C@@H](O)[C@@H]1O (mixture of isomers) [Maltose]

More lines, now with the values behind:

Molecule: Amylopectin
Km (α-1,4-glucan lyase [1]): 3.76 mg/mL
AF released (α-1,4-glucan lyase [2]): 732 nmol
AF Yield (%) (lyase and pullulanase; [15]): 48.0%
Glc Yield (%) (lyase and pullulanase; [15]): 0%
AF Yield (%) (lyase and pullulanase; lyase and pullulanase added): 71.3%
Glc Yield (%) (lyase and pullulanase; lyase and pullulanase added): 3.7%
AF Yield (%) (lyase and pullulanase; [16]): 0%
Glc Yield (%) (lyase and pullulanase; [16]): 0.33%
effect on stability of the lyase (α-1,4-glucan lyase [3]): stabilizing effect

Molecule: O [Water]
AF yield (α-1,4-glucan lyase [11]; reaction time 1 day): 46 µmol
AF yield (α-1,4-glucan lyase [11]; reaction time 3 days): 128 µmol
AF yield (α-1,4-glucan lyase [11]; reaction time 8 days): 217 µmol

Molecule: [Cl-].[Na+] [NaCl]
increase of AF yield (α-1,4-glucan lyase [10]; 0.85% (0.145 M) in the reaction mixture): up to 1 fold

Molecule: Glycogen
Km (α-1,4-glucan lyase [1]): 3.37 mg/mL
AF released (α-1,4-glucan lyase [2]): 592 nmol

B1: MV-lyase: lyase isolated from the fungus Morchella vulgaris, ATCC (protein)
chain: MAGLSDPLNFCKAEDYYAAAKGWSGPQKIIRYDQTPPQGTKDPKSWHAVNLPFDDGTMCVVQFVRPCVWRVRYDPSVKTSDEYGDENTRTIVQDYMTTLVGNLDIFRGLTWVSTLEDSGEYYTFKSEVTAVDETERTRNKVGDGLKIYLWKNPFRIQVVRLLTPLVDPFPIPNVANATARVADKVVWQTSPKTFRKNLHPQHKMLKDTVLDIIKPGHGEYVGWGEMGGIEFMKEPTFMNYFNFDNMQYQQVYAQGALDSREPLYHSDPFYLDVNSNPEHKNITATFIDNYSQIAIDFGKTNSGYIKLGTRYGGIDCYGISADTVPEIVRLYTGLVGRSKLKPRYILGAHQACYGYQQESDLHAVVQQYRDTKFPLDGLHVDVDFQDNFRTFTTNPITFPNPKEMFTNLRNNGIKCSTNITPVISIRDRPNGYSTLNEGYDKKYFIMDDRYTEGTSGDPQNVRYSFYGGGNPVEVNPNDVWARPDFGDNYDFPTNFNCKDYPYHGGVSYGYGNGTPGYYPDLNREEVRIWWGLQYEYLFNMGLEFVWQDMTTPAIHSSYGDMKGLPTRLLVTADSVTNASEKKLAIESWALYSYNLHKATFHGLGRLESRKNKRNFILGRGSYAGAYRFAGLWTGDNASTWEFWKISVSQVLSLGLNGVCIAGSDTGGFEPARTEIGEEKYCSPELLIRWYTGSFLLPWLRNHYVKKDRKWFQEPYAYPKHLETHPELADQAWLYKSVLEICRYWVELRYSLIQLLYDCMFQNVVDGMPLARSMLLTDTEDTTFFNESQKFLDNQYMAGDDILVAPILHSRNEVPGENRDVYLPLFHTWYPSNLRPWDDQGVALGNPVEGGSVINYTARIVAPEDYNLFHNVVPVYIREGAIIPQIQVRQWIGEGGPNPIKFNIYPGKDKEYVTYLDDGVSRDSAPDDLPQYREAYEQAKVEGKDVQKQLAVIQGNKTNDFSASGIDKEAKGYHRKVSIKQESKDKTRTVTIEPKHNGYDPSKEVGNYYTIILWYAPGFDGSIVDVSQATVNIEGGVECEIFKNTGLHTVVVNVKEVIGTTKSVKITCTTA
pI [14]: 4.4

Source: patent US6541237B1, “A-1,4-glucan lyase and its use in the production of 1.5-androfructose” (Danisco A/S, priority 1994, dated 2003)
